The values that follow come from patent US8378117B2 (priority 2005, dated 2013).

In one test the target is T1, CB2 receptor (Homo sapiens, UniProt P34972).
T1 construct: expressed in transfected cells
Briefly: Binding assay for CB2 agonists or inverse agonists (SK-N-MC membranes, [3H]-CP-55,940). As to conditions: for CB2 receptor binding percent inhibition: test concentration not stated. The method in brief: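 Membranes from SK-N-MC cells stably expressing human CB2 were incubated with radioligand and test compounds for 90 min at 30 °C in Tris-HCl buffer, pH 7.5, with MgCl2, EDTA and fatty-acid-free BSA. Filter-bound radioactivity was counted; IC50 was derived by linear regression of percent inhibition.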

For test [1], the target named is T2, CB1 receptor (Homo sapiens, UniProt P21554).
T2 construct: expressed in transfected cells
T2 sequence (P21554 whole entry): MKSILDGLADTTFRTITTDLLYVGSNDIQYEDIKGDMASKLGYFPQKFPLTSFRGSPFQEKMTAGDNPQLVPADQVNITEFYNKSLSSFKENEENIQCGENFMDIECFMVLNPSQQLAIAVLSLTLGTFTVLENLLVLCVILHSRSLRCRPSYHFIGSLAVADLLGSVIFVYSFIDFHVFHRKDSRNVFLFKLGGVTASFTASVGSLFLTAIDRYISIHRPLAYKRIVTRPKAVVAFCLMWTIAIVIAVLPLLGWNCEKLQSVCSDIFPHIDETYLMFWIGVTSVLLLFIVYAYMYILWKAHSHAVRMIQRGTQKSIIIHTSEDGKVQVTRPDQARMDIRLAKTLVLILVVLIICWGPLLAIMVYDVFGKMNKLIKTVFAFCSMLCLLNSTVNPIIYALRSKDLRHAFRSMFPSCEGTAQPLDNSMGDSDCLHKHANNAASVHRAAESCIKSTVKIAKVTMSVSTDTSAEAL
Briefly: cell-based. The note with it: SK-N-MC cells. The text has this: The CB1 and CB2 receptors are G-protein coupled receptors (GPCR), which influence cell function via the Gi-protein. These receptors modulate the activity of intracellular adenylate cyclase, which in turn produces the intracellular signal messenger cyclic-AMP (cAMP).
At baseline, or during non-ligand bound conditions, these receptors are constitutively active and tonically suppress adenylate cyclase activity. The binding of an agonist causes further receptor activation and produces additional suppression of adenylate cyclase activity. The binding of an inverse agonist inhibits the constitutive activity of the receptors and results in an increase in adenylate cyclase activity.
By monitoring intracellular adenylate cyclase activity, the ability of compounds to act as agonists or inverse agonists can be determined.
Test compounds were evaluated in SK-N-MC cells which, using standard transfection procedures, were stably transfected with human cDNA for pcDNA3-CRE β-gal and pcDNA3 CB1 receptor (human) or pcDNA3 CB2 receptor (human). By expressing CRE β-gal, the cells produced β-galactosidase in response to CRE promoter activation by cAMP. Cells expressing CRE β-gal and either the human CB1 or CB2 receptor will produce less β-galactosidase when treated with a CB1/CB2 agonist and will produce more β-galactosidase when treated with a CB1/CB2 inverse agonist.
The cells were grown in 96-well plates under standard cell culture conditions at 37° C. in a 5% CO2 atmosphere and culture media (wherein the media was supplemented with 2 mM L-glutamine, […] sodium pyruvate, 10% FBS (fetal bovine serum) and antibiotics).
The change in forskolin induced β-galactosidase activity was determined by setting a vehicle treated cell's activity value at 100% and expressing the β-galactosidase activity measured in a corresponding compound treated cell as a percent of the vehicle treated cell activity.
The EC50 value for functional activity for compounds tested was calculated by linear regression and was obtained from studies in which varying compound concentrations were used.
Where an EC50 value was not obtained for a test compound, the value shown (in %) represents change in functional activity and was obtained from a study in which one compound concentration was used.

The target in test [2] is T2, CB1 receptor. In words: Binding assay for CB1 agonists or inverse agonists (SK-N-MC membranes, [3H]-CP-55,940). As to conditions: for inhibition at 1 µM: read-out: CB1 receptor binding percent inhibition, test concentration 1 μM (footnote 1); for inhibition at 0.5 µM: read-out: CB1 receptor binding percent inhibition, test concentration 0.5 μM (footnote 10). Put shortly: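 Membranes from SK-N-MC cells stably expressing human CB1 incubated with compound and [3H]-CP-55,940 ([…]) for 90 min at 30° C in Tris-HCl pH 7.5, MgCl2, EDTA, fatty-acid-free BSA. Non-specific binding defined with 10 uM WIN 55,212; filtration, scintillation count; IC50 by linear regression.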

The mark [3] stands for this setting: CB1 Receptor Functional Inverse Agonist EC50, forskolin induced β-galactosidase activity.
The mark [4] stands for this setting: test concentration 1 μM (footnote 1), 1 µM.
Where [5] appears, read: forskolin induced β-galactosidase activity, read-out: CB1 Receptor Functional Inverse Agonist EC50.

The structures appear in SMILES notation. Like-named read-outs stand apart in the source and are kept apart here.

T1 sequence (P34972 whole entry): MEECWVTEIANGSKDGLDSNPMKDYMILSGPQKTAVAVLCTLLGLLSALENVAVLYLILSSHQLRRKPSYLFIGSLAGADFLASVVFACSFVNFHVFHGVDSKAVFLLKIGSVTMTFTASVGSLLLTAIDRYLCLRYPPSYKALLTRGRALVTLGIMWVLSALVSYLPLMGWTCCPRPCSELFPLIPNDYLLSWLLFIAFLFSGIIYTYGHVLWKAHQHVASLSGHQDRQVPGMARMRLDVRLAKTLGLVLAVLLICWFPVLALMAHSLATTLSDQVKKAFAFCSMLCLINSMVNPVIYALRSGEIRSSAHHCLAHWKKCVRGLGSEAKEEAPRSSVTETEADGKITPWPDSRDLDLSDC

For orientation: EC50 means the concentration that produces a half-maximal response. For the compound `O=C(N[C@@H]1c2ccccc2C[C@@H]1O)c1nn(-c2ccc(Cl)cc2Cl)c2c1CCCCC2Cc1cccc(Cl)c1` (single isomer, unassigned) [Cpd 112, (8R*)-8-(3-chloro-benzyl)-1-(2,4-dichloro-phenyl)-1,4,5,6,7,8-hexahydro-cycloheptapyrazole-3-carboxylic acid [(1R,2S)-2-hydroxy-indan-1-yl]-amide], at CB2 receptor, the “CB2 receptor binding percent inhibition” value is listed as 16%. At CB1 receptor [1] (setting [3]), this compound displayed an EC50 of 60 nM. Moreover, the inhibition at 1 µM on CB1 receptor [2] was 49%.
Turning to `O=C(N[C@@H]1c2ccccc2C[C@@H]1O)c1nn(-c2ccc(Cl)cc2Cl)c2c1CCCCC2Cc1cccc(Cl)c1` (single isomer, unassigned) [Cpd 113, (8S*)-8-(3-chloro-benzyl)-1-(2,4-dichloro-phenyl)-1,4,5,6,7,8-hexahydro-cycloheptapyrazole-3-carboxylic acid [(1R,2S)-2-hydroxy-indan-1-yl]-amide], the “CB2 receptor binding percent inhibition” value at CB2 receptor came out at 28%. The compound further registered an EC50 on CB1 receptor [1] (setting [3]) of 100 nM. Besides, at CB1 receptor [2], the inhibition at 0.5 µM stood at 44%. The “CB1 receptor binding percent inhibition” value at CB1 receptor [2] (setting [4]) was 62%; on CB1 receptor [2] (test concentration not stated) it was 53%.
As to `O=C(N[C@@H]1c2ccccc2C[C@@H]1O)c1nn(C2CCCCC2)c2c1CCCCC2Cc1cccc(F)c1` (single isomer, unassigned) [Cpd 114, (8R*)-1-cyclohexyl-8-(3-fluoro-benzyl)-1,4,5,6,7,8-hexahydro-cycloheptapyrazole-3-carboxylic acid [(1R,2S)-2-hydroxy-indan-1-yl]-amide], at CB2 receptor, the “CB2 receptor binding percent inhibition” value is given as 47%. The compound also gave an EC50 on CB1 receptor [1] (setting [3]) of 40 nM. Moreover, the “CB1 receptor binding percent inhibition” value on CB1 receptor [2] (setting [4]) is listed as “^(1)17%”.
What is called IC50 is the midpoint of a concentration-inhibition curve. As for `C[C@H](NS(=O)(=O)/C=C/c1nn(-c2ccc(Cl)cc2Cl)c2c1CCCCC2Cc1cccc(Cl)c1)c1ccccc1` (stereo partly drawn) [Cpd 3, (2E)-2-[8-(3-chloro-benzyl)-1-(2,4-dichloro-phenyl)-1,4,5,6,7,8-hexahydro-cycloheptapyrazol-3-yl]-ethenesulfonic acid [(1S)-1-phenyl-ethyl]-amide], on CB2 receptor, the “CB2 receptor binding percent inhibition” value is on record as 26%. On CB1 receptor [1] (setting [3]), the EC50 stood at 70 nM. The IC50 at CB1 receptor [2] (Cannabinoid CB1 Receptor Binding IC50, calculated by linear regression from percent inhibition at various test concentrations) was 1300 nM. The inhibition at 1 µM at CB1 receptor [2] stood at 60%.
As for `C[C@@H](NC(=O)c1nn(C2CCCCC2)c2c1CCCCC2Cc1cccc(Cl)c1)c1ccccc1` (stereo partly drawn) [Cpd 8, 8-(3-chloro-benzyl)-1-cyclohexyl-1,4,5,6,7,8-hexahydro-cycloheptapyrazole-3-carboxylic acid [(1R)-1-phenyl-ethyl]-amide], the “CB2 receptor binding percent inhibition” value on CB2 receptor stood at 5%. For the same compound, at CB1 receptor [1] (setting [5]), the EC50 came out at 400 nM. For the same compound, at CB1 receptor [2], the inhibition at 1 µM came to 30%.
Turning to `O=C(NC1CCC1)c1nn(-c2ccc(Cl)cc2Cl)c2c1CCCCC2Cc1ccc(Cl)cc1` (stereo not drawn) [Cpd 25, 8-(4-chloro-benzyl)-1-(2,4-dichloro-phenyl)-1,4,5,6,7,8-hexahydro-cycloheptapyrazole-3-carboxylic acid cyclobutylamide], on CB2 receptor, the “CB2 receptor binding percent inhibition” value is reported as 19%. Also, the EC50 on CB1 receptor [1] (setting [5]) was found to be 1200 nM. At CB1 receptor [2], the inhibition at 0.5 µM was 30% and the inhibition at 1 µM stood at 71%. For the same compound, the “CB1 receptor binding percent inhibition” value at CB1 receptor [2] (test concentration not stated) is 51%.
As to `O=C(NCc1ccc(C(F)(F)F)cc1)c1nn(-c2ccc(Cl)cc2Cl)c2c1CCCCC2Cc1ccc(Cl)cc1` (stereo not drawn) [Cpd 26, 8-(4-chloro-benzyl)-1-(2,4-dichloro-phenyl)-1,4,5,6,7,8-hexahydro-cycloheptapyrazole-3-carboxylic acid 4-trifluoromethyl-benzylamide], the inhibition at 1 µM at CB2 receptor (test concentration 1 μM (footnote 1), read-out: CB2 receptor binding percent inhibition) is 35%; at CB1 receptor [2] it was 70%. Also, the inhibition at 2 µM at CB2 receptor (test concentration 2 μM (footnote 6), read-out: CB2 receptor binding percent inhibition) is 22%; on CB1 receptor [2] (read-out: CB1 receptor binding percent inhibition, test concentration 2 μM (footnote 6)), 55%. Besides, on CB2 receptor, the “CB2 receptor binding percent inhibition” value is reported as 29%. Also, the EC50 on CB1 receptor [1] (setting [5]) was 600 nM. For the same compound, the “CB1 receptor binding percent inhibition” value on CB1 receptor [2] (test concentration not stated) was 63%.
